From patent publication US5100907A, “Hydantoin esters” (Lonza, Inc., priority 1990, dated 1992)

How the values were obtained:
[1] = Solubilities of esters in typical solvents / appearance of samples in water; assay type: physicochemical; conditions: 25° C.
[2] = test system: Staphylococcus aureus; assay: Antimicrobial study against Staphylococcus aureus (gram-positive bacteria); assay type: cell-based; conditions: methylolated C8/10 10,800 ppm, methylolated lauric 11,400 ppm, DMDMH 3,000 ppm, others 14,700 ppm
Experimental: (§1) The antimicrobial properties of typical esters (I) and (Ia) were tested by minimum inhibitory concentration (MIC) tests, along with certain known substances, against […] strains of organisms: a mold, Aspergillus niger; a gram-positive bacteria, Staphylococcus aureus; and two gram-negative bacteria, Escherichia coli and Pseudomonas aeruginosa. […] These tests were used to determine any effect on biocidal activity of the varying chain length of the ester.
(§2) The known substances, on which identical tests were also performed, included the biocide, dimethyloldimethylhydantoin or DMDMH (iv), and a series of three surfactants, i.e., the three common emulsifiers, sodium lauryl sulfate (SLS); ethylene glycol distearate (EGDS), in the form of the commercial product PEGOSPERSE 50 DS (Lonza Inc.); and polyoxyethylene 20 sorbitan monoleate (POE 20 SMO), in the form of the commercial product GLYCOSPERSE 0 20 (Lonza Inc.).
(§3) The tests entailed contaminating a preexisting micro-colony with a known quantity (ppm, concentration) of test material. Each colony was then examined periodically over a one week period. […] A test was deemed non-efficacious when there was no decrease in colony size. In an effort to avoid any possible solvent effect, the micro-study was conducted in a totally aqueous solvent system without use of any other solvent.

[3] = Dispersion stability tests; assay type: physicochemical; conditions: for stability of dispersions in water: 0.5%, and even 5% active levels
Experimental: The dispersion stability tests were performed on the esters (I) to determine the extent each was able to disperse itself in an aqueous medium.
The dispersions were prepared by homogenizing a mixture of the test ester and water, after which repeated examination of the sample was effected for a period of 55 days. This test method is fully indicative of the dispersibility of these esters (I).
The dispersion tests were performed with the esters at 0.5% and 5.0% active levels in water, prepared by combining the test ester with distilled water, and homogenizing the mixture for one to three minutes, via a Kika-Werk Ultra-Turrax S D-45 homogenizer. The dispersions were poured into an eight ounce flint jar, capped, and periodically examined over a 55 day period.

[4] = test system: Aspergillus niger; assay: Antimicrobial study against Aspergillus niger (mold); assay type: cell-based; conditions: methylolated C8/10 10,800 ppm, methylolated lauric 11,400 ppm, DMDMH 3,000 ppm, others 14,700 ppm
Experimental: as §1, §2, §3

[5] = Total available formaldehyde (TF) and free formaldehyde (FF) levels of esters (I); assay type: physicochemical; conditions: for FF (free formaldehyde) / TF (total available formaldehyde): neat ester, Table 3
From the text: Thus, whether the formaldehyde content is chemically bonded to the hydantoin moiety or is free formaldehyde (FF) in solution, e.g., in water as formaldehyde or methylene glycol [CH2 (OH)2 ], it remains available for biocidal action. Due to this direct relation, the weight percent TF in a given preparation of the ester (I), e.g. a cosmetic formulation, can be predicted accurately, regardless of the level of dilution.

[6] = HLB determination (weighted average method); assay type: physicochemical
From the text: Hydrophilic-Lipophilic Balance or HLB is a means of associating the hydrophilic and lipophilic characteristics between two surfactants. A "weighted average" method was used to determine the HLB of the esters (I), and by comparison of the precursor ester (Ia), in which two emulsifiers of known HLB values along with the test ester were incorporated in a mixture of mineral oil and water. Evaluation and HLB determination of each of a series of prepared emulsion samples were effected by visual inspection.
The HLB of the mixture "m" is calculated from the sum of the HLB contributions of each surfactant, "a", "b", "c", per Equation 2 which describes a system of oil, water, and three surfactants.
Given that [HLB]m, [HLB]a, and [HLB]b, are known, and the ideal amount of "a", "b", and "c" to prepare a perfect emulsion has been determined, then by rearrangement of Eq. 2, the HLB of "c" can be calculated by Equation 3.
To obtain the HLB of the test ester as surfactant "c", a series of formulations was prepared in which the known surfactant sorbitan monostearate (SMS) as "a" and the known surfactant POE 20 sorbitan monostearate (POE 20 SMS) as "b" were varied in amount (wt. %) relative to each other at a constant amount (1 wt. %) of "c", until an optimum emulsion was obtained. Different combinations of "a" and "b" were used to vary the HLB of "c", for emulsifying a 40:56 (wt. %) mixture of paraffin oil and distilled water (totaling 96 wt. %).
To prepare the emulsions, surfactants "a", "b", and "c", and the paraffin oil were combined in a 150 ml beaker and heated slowly with agitation to 70°-80° C. The value of "X" in each formulation was predetermined by rearranging Eq. 3 to solve for X, and then inserting into the equation various [HLB]c values for the test ester (i.e., 2, 3, 4, 5, 6 . . . ). The [HLB]c values chosen reflected a range that would likely contain the actual HLB of the test ester. Hot distilled water (70°-80° C.) was then slowly added with agitation. The total weight of all these reagents was 100 grams. The resulting emulsion was allowed to cool, with continued agitation, until the temperature dropped below 30° C.
A series of emulsions for each test was prepared, one at a time, and then examined as a set. Each sample within the series was evaluated and graded according to the quality of the emulsion by visual examination of droplet size.

[7] = test system: Pseudomonas aeruginosa; assay: Antimicrobial study against Pseudomonas aeruginosa (gram-negative bacteria); assay type: cell-based; conditions: methylolated C8/10 10,800 ppm, methylolated lauric 11,400 ppm, DMDMH 3,000 ppm, others 14,700 ppm
Experimental: as §1, §2, §3

[8] = 1% active concentration in water

Solubility in isopropyl alcohol [1]	Solubility in mineral oil [1]	stability of dispersions in water [3]	FF (free formaldehyde) [5] [Wt. %]	TF (total available formaldehyde) [5] [Wt. %]	Average HLB [6]	HLB Range [6]	Structure (SMILES)	Colony Count ([2]; Day 0)	Colony Count ([2]; Day 1)	Colony Count ([2]; Day 2)	Colony Count ([2]; Day 3)	Colony Count ([2]; Day 7)	dispersion quality, decreasing order of rank [3]	Colony Count ([4]; Day 0)	Colony Count ([4]; Day 1)	Colony Count ([4]; Day 2)	Colony Count ([4]; Day 3)	Colony Count ([4]; Day 7)	Colony Count ([7]; Day 0)	Colony Count ([7]; Day 1)	also measured
S (>10 g/100 g Solvent)	S (>10 g/100 g Solvent)	stable for weeks	0.2	8.0	12.8	12-14	CCCCCCCCCCCC(=O)OCCN1C(=O)N(CO)C(=O)C1(C)C [Methylolated Lauric Ester, 2-(3-hydroxymethyl-5,5-dimethyl-1,3-diazacyclopentane-2,4-dion-1-yl)-ethylester of lauric acid]	TNC	4,000 × 1,000	< 0.01 × 1,000	< 0.01 × 1,000	< 0.01 × 1,000	isostearate>oleate>cocoate>laurate>C8/10ester>>stearate>acetate	400 × 1,000	2 × 1,000	< 0.01 × 1,000	< 0.01 × 1,000	< 0.01 × 1,000	TNC	< 0.01 × 1,000	Colony Count ([7]; Day 2): < 0.01 × 1,000; Colony Count ([7]; Day 3): < 0.01 × 1,000; Colony Count ([7]; Day 7): < 0.01 × 1,000
S (>10 g/100 g Solvent)	S (>10 g/100 g Solvent)	stable for weeks	0.2	6.5	15.0	14-16	CCCCCCCC/C=C\CCCCCCCC(=O)OCCN1C(=O)N(CO)C(=O)C1(C)C [Methylolated Oleic Ester, 2-(3-hydroxymethyl-5,5-dimethyl-1,3-diazacyclopentane-2,4-dion-1-yl)-ethylester of oleic acid]	TNC	4,200 × 1,000	< 0.01 × 1,000	< 0.01 × 1,000	< 0.01 × 1,000	isostearate>oleate>cocoate>laurate>C8/10ester>>stearate>acetate	2,000 × 1,000	0.5 × 1,000	< 0.01 × 1,000	< 0.01 × 1,000	< 0.01 × 1,000	TNC	< 0.01 × 1,000	Calculated TF [5, 8]: 0.065 Wt. %; Determined FF [5, 8]: 0.0112 Wt. %; Ratio FF/TF [5, 8]: 0.172; TF ([5]; at a concentration of 1.0%): 0.4 wt. %; Colony Count ([7]; Day 2): < 0.01 × 1,000; Colony Count ([7]; Day 3): < 0.01 × 1,000; Colony Count ([7]; Day 7): < 0.01 × 1,000
